Laboratory results published in US10954252B1, “Inhibitors of human immunodeficiency virus replication” (ViiV HEALTHCARE UK (NO.5) LIMITED, priority 2017, dated 2021).

Legend:
[1] = Stereoisomer interconversion on storage in MeOH at ambient condition; assay type: physicochemical; conditions: stored in MeOH at ambient condition
[2] = Compound cytotoxicity, XTT-based colorimetric assay; assay type: cell-based; conditions: human, uninfected MT2 cells, Table 1, day 4, XTT
Summary of the method: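 CC50 from uninfected MT2 cells run under the antiviral-assay protocol without virus. Viability read on day 4 by XTT colorimetric assay.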

[3] = tested on: recombinant NL4-3 virus (nef section replaced with Renilla luciferase gene) in MT-2 cells; assay: HIV cell culture assay (antiviral activity, luciferase readout); assay type: cell-based; conditions: Renilla, NL43, Table 1; MT-2 cells infected for 4-5 days with recombinant NL4-3 luciferase virus
Summary of the method: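 NL4-3 reporter virus carrying Renilla luciferase in place of part of nef, produced in 293T cells, was used to infect MT-2 cells for 4-5 days with serial compound dilutions. Luciferase activity was read with a live-cell substrate; EC50 derived from the median effect equation.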

## Cn1nc(NS(C)(=O)=O)c2c(Cl)ccc(-n3c([C@H](Cc4cc(F)cc(F)c4)NC(=O)Cn4nc(C(F)F)c5c4C(F)(F)C4CC54)nc4nc(Cl)ccc4c3=O)c21 (stereo in doubt) [Example 12.2, N—((S)-1-(7-chloro-3-(4-chloro-1-methyl-3-(methylsulfonamido)-1H-indazol-7-yl)-4-oxo-3,4-dihydropyrido[2,3-d]pyrimidin-2-yl)-2-(3,5-difluorophenyl)ethyl)-2-((3bS,4aR)-3-(difluoromethyl)-5,5-difluoro-3b,4,4a,5-tetrahydro-1H-cyclopropa[3,4]cyclopenta[1,2-c]pyrazol-1-yl)acetamide]
[1]
  conversion to another stereoisomer on storage: converts slowly to one of the stereoisomers in Example 12.1
[2]
  CC50 at 4 days: > 3300 nM
[3]
  EC50: 42 nM
